# Assay results: PMC10214526, “Semisynthetic LC3 Probes for Autophagy Pathways Reveal a Noncanonical LC3 Interacting Region Motif Crucial for the Enzymatic Activity of Human ATG3” (ACS Central Science, 2023)
# How the values were obtained:
# [1] = biological target: T1, ATG3 C1–GABARAP (probe 2) complex formation (Homo sapiens, UniProt O95166); test: Competition assay: LIR^ATG3 peptides vs cross-linking of GABARAP methyl fumarate probe 2 with ATG3 C1; type: biochemical; details: probe 2 (15 μM) with ATG3 C1 in the presence of increasing amounts of peptide
# T1 construct: SUMO2 (N, cleaved yes); Mxe GyrA intein-His6 (C, cleaved yes); made in house; host or cells: E. coli Rosetta-CodonPlus (DE3)-RIL
# Procedure: To exclude an effect of LIR deletion on protein activity we performed a competition experiment with chemically prepared LIR (L94-H112) peptide 5. Probe 2 (15 μM) was incubated with ATG3 C1 in the presence of increasing amounts of 5. […] We also postulated that cyclization of the LIR peptide would recapitulate its β-sheet conformation and lead to tighter binding than the linear peptide due to preorganization.[37] […] Cyclic peptide 6 was prepared by solid-phase peptide synthesis followed by cyclization using selective cysteine alkylation (Figure S11).[39],[40] […] Additionally, we confirmed the interaction of LIR^ATG3 peptides with GABARAP and LC3A by fluorescence polarization (Figure 2e–g). LIR^ATG3-derived peptides bind to both LC3A and GABARAP. As indicated by the competition experiments, cyclic peptides bound markedly tighter to GABARAP and LC3A than the linear peptides. […]
# Figure 2 Characterization of LIR^ATG3. a. […] Quantification of competition assays shown in b and c. The amount of GABARAP–ATG3 C1 complex was quantified by gel-densitometry and normalized to the reaction without peptide for each gel. […] Fluorescence polarization binding-data of fluorescein-modified LIR^ATG3 peptide binding to GABARAP. […] Fluorescence polarization data of fluorescein-modified LIR^ATG3 peptide binding to LC3A. […]
# Farnung et al. Supplementary Information and monitored using LC-MS analysis. […]
# [2] = Circular dichroism spectroscopy of LIR^ATG3 peptides; type: physicochemical; details: 700 μM peptide, 20 mM potassium phosphate pH 7.2, 20 °C, 180-300 nm, 5x averaged
# Excerpt: Farnung et al. Supplementary Information […]
# H Capping with O H Resin cleavage O H Cyclization O […]
# acid anhydride deprotection
# Figure S11. Preparation of cyclized LIRATG3 peptide 6. a, Synthetic scheme describing the preparation of 6.
# A cysteine residue is introduced at the C-terminus of the LIR motif. Following standard Fmoc-SPPS the LIR peptide is capped at its N-terminus with α-chloroacetic acid anhydride. Following resin cleavage, the peptide is cyclized by cysteine alkylation. b, Analytical RP-HPLC chromatograms showing the cyclization of the LIR […]
# peptide to provide 6. […] Middle chromatogram
# Figure S12. CD spectra of linear and cyclic LIR ATG3 peptides 5 and 6. CD spectra of LIRATG3 peptides 5 and 6 were recorded in 20 mM KPhos buffer (pH 7.2) at a concentration of 700 μM. Cyclized LIRATG3 peptide 6 […]
# nm and an increase in band intensity at 215 nm.
# Plasmid Supplier Identiﬁer Dilution
# Anti-ATG5 Cell-Signalling #D5F5U 1:1,000
# Anti-β-Actin Thermo-Fisher #BA3R 1:2,000
# Table S2 Antibodies used in this study.
# 2.9. Circular dichroism spectroscopy
# CD spectra were recorded on a JASCO J-1500 CD spectrometer in a 0.1 cm cuvette. Samples were measured in potassium phosphate (20 mM, pH 7.2) at 20 °C. Data were recorded between 180-300 nm with a measuring speed of 20 nm/min. Measurements were repeated (5x) and averaged.
# Background spectrum was recorded and subtracted from measured spectra. […]
# T1 sequence (O95166 1-115 limits assumed, one chain of several): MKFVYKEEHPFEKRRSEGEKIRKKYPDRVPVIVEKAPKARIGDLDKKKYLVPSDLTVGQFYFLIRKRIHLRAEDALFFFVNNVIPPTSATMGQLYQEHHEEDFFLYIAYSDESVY
substance,measurement,setting,value
Ac-LEAIIEEDDGDGGWVDTYHAGGGK-OH [compound 5],Block of ATG3 modification,[1],blocked ATG3 modification in a concentration-dependent manner
same,Secondary structure by CD,[2],not structured in solution
